According to patent US10898481B2 (priority 2018, dated 2021):
Where two headings read alike, the source gives them in different places.

Key:
hA2b/CHO = hA2b/CHO (Homo sapiens (Human), UniProt P29275); experiment: cAMP inhibition assay in hA2b/CHO cells, 10 μM adenosine; assay type: cell-based;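 note: cells exposed to compound 30 min at 37 °C, then stimulated with adenosine a further 30 min, cAMP read after 60 min at room temperature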
Procedure: (§1) hA2a/CHO, hA2b/CHO, hA3/CHO and mA2a/CHO (Genscript) were plated at 5×10^3 cells/well into 384-well polystyrene plates at the day of experiment. Compounds were pre-incubated with cells for 30 min at 37° C., 5% CO2. Then 10 μM adenosine was added to the cells and incubated for 30 min at 37° C., 5% CO2. Detection reagent (CISBIO) was added and the plates were incubated for 60 min at room temperature. The signal was captured by Envision.

mA2a/CHO = mA2a/CHO (Mus musculus (Mouse), UniProt Q60613); experiment: cAMP inhibition assay in mA2a/CHO cells, 10 μM adenosine; assay type: cell-based;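 note: compounds preincubated 30 min at 37 °C before the adenosine challenge, then 30 min further stimulation, readout after 60 min detection reagent incubation at room temperature in 384-well plates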
Procedure: as §1

hA2a/CHO = hA2a/CHO (Homo sapiens (Human), UniProt P29274); experiment: cAMP inhibition assay in hA2a/CHO cells, 10 μM adenosine; assay type: cell-based;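 note: compounds added to cells 30 min ahead of adenosine, then a further 30 min at 37 °C with adenosine before cAMP detection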
Procedure: as §1

[1] = target: hADORA1/CHO (hA1 expressing) cells (Homo sapiens (Human), UniProt P30542); experiment: cell-based; conditions: 10 μM adenosine
[2] = read-out: cAMP & FLIPR IC50 (nM) hA2b
[3] = read-out: cAMP & FLIPR IC50 (nM) mA2a
[4] = read-out: cAMP & FLIPR IC50 (nM) hA2a
[5] = FLIPR inhibition, read-out: cAMP & FLIPR IC50 (nM) hA1

hA2b/CHO, sequence (P29275 whole entry): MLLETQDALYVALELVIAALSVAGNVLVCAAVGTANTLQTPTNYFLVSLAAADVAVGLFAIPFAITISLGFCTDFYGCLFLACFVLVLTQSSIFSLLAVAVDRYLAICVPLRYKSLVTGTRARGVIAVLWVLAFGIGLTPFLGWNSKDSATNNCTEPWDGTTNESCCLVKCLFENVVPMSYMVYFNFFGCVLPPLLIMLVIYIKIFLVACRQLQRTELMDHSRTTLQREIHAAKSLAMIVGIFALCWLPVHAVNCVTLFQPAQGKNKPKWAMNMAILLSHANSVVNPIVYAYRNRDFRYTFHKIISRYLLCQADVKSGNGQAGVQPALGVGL
hADORA1/CHO (hA1 expressing) cells, sequence (P30542 whole entry): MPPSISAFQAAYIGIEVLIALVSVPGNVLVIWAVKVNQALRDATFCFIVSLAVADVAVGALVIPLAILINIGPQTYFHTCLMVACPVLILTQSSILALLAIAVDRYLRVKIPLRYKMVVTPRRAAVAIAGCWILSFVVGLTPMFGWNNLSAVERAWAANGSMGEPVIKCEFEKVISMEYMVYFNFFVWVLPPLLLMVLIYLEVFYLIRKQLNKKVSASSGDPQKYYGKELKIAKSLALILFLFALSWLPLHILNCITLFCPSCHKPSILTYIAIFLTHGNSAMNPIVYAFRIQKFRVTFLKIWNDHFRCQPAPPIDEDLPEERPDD
hA2a/CHO, sequence (P29274 whole entry): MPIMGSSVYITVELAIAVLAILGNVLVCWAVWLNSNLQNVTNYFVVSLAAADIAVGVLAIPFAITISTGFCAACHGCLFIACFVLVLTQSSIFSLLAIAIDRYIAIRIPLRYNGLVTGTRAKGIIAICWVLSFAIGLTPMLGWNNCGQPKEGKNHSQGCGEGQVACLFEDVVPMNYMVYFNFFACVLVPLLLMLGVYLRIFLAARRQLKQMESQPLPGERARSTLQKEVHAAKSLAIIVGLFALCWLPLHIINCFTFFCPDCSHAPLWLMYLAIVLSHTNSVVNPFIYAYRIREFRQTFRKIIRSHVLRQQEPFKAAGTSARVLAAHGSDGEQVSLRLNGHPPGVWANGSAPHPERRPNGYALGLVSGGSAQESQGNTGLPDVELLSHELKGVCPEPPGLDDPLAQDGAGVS
mA2a/CHO, sequence (Q60613 whole entry): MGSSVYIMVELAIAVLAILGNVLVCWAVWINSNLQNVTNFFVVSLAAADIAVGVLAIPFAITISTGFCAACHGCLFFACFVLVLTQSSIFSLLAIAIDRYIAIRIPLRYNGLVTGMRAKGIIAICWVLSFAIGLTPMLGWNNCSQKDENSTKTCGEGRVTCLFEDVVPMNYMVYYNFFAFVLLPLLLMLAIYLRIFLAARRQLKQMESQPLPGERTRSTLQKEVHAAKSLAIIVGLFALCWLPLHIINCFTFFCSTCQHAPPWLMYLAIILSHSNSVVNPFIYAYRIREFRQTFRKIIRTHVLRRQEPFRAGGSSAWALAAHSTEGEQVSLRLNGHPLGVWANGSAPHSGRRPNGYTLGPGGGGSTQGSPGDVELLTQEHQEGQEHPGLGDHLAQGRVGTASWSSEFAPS

For `Cn1cc(-c2nc(C(=O)NCc3ncccc3CO)c(N)nc2-c2ncco2)ccc1=O` [Example 36, 3-amino-N-((3-(hydroxymethyl)pyridin-2-yl)methyl)-6-(1-methyl-6-oxo-1,6-dihydropyridin-3-yl)-5-(oxazol-2-yl)pyrazine-2-carboxamide], the IC50 (hA2b/CHO; [2]) was 2530 nM, the IC50 (mA2a/CHO; [3]) was 419 nM and the IC50 (hA2a/CHO; [4]) was 180 nM. It also gave an IC50 [1, 5] of 3010 nM.

For `Nc1nc(-c2ncco2)c(-c2ccc(=O)n(C3CC3)c2)nc1C(=O)NCc1c(F)cccc1F` [Example 38, 3-amino-6-(1-cyclopropyl-6-oxo-1,6-dihydropyridin-3-yl)-N-[(2,6-difluorophenyl)methyl]-5-(1,3-oxazol-2-yl)pyrazine-2-carboxamide], the IC50 (hA2b/CHO; [2]) was 59 nM, the IC50 (mA2a/CHO; [3]) was 5.3 nM and the IC50 (hA2a/CHO; [4]) was 2.4 nM. The IC50 [1, 5] was 61 nM.

Work on `Cn1cc(-c2nc(C(=O)NCc3c(F)cccc3N3CCOCC3)c(N)nc2-c2ncco2)ccc1=O` [Example 39, 3-amino-N-[[2-fluoro-6-(morpholin-4-yl)phenyl]methyl]-6-(1-methyl-6-oxo-1,6-dihydropyridin-3-yl)-5-(1,3-oxazol-2-yl)pyrazine-2-carboxamide] yielded an IC50 (hA2b/CHO; [2]) of 2120 nM, an IC50 (mA2a/CHO; [3]) of 3.3 nM and an IC50 (hA2a/CHO; [4]) of 7.8 nM. It also gave an IC50 [1, 5] of 32 nM.

With `Nc1nc(-c2ncco2)c(-c2ccc(=O)n(C3COC3)c2)nc1C(=O)NCc1c(F)cccc1F` [Example 42, 3-amino-N-[(2,6-difluorophenyl)methyl]-5-(1,3-oxazol-2-yl)-6-[1-(oxetan-3-yl)-6-oxo-1,6-dihydropyridin-3-yl]pyrazine-2-carboxamide] the IC50 (hA2b/CHO; [2]) was 102 nM, the IC50 (mA2a/CHO; [3]) was 16 nM and the IC50 (hA2a/CHO; [4]) was 14 nM. For the same molecule, the IC50 [1, 5] was 51 nM.

Molecule `Cc1nc(CNC(=O)c2nc(-c3ccc4nccn4c3)c(-c3ncco3)nc2N)cs1` [Example 44, 3-amino-6-(imidazo[1,2-a]pyridin-6-yl)-N-((2-methylthiazol-4-yl)methyl)-5-(oxazol-2-yl)pyrazine-2-carboxamide] has an IC50 (hA2b/CHO; [2]) of 2110 nM, an IC50 (mA2a/CHO; [3]) of 786 nM and an IC50 (hA2a/CHO; [4]) of 131 nM. The IC50 [1, 5] was 10000 nM.

`Nc1nc(-c2ncco2)c(-c2ccc3nccn3c2)nc1C(=O)NCc1cscn1` [Example 45, 3-amino-6-[imidazo[1,2-a]pyridin-6-yl]-5-(1,3-oxazol-2-yl)-N-[(1,3-thiazol-4-yl)methyl]pyrazine-2-carboxamide] was tested, and the IC50 (hA2b/CHO; [2]) was 912 nM, the IC50 (mA2a/CHO; [3]) was 566 nM and the IC50 (hA2a/CHO; [4]) was 94 nM. The IC50 [1, 5] was 10000 nM.

`CNc1cccnc1CNC(=O)c1nc(-c2ccc(=O)n(C)c2)c(-c2ncco2)nc1N` [Example 46, 3-amino-6-(1-methyl-6-oxo-1,6-dihydropyridin-3-yl)-N-((3-(methylamino)pyridin-2-yl)methyl)-5-(oxazol-2-yl)pyrazine-2-carboxamide] was tested, and the IC50 (hA2b/CHO; [2]) was 1620 nM, the IC50 (mA2a/CHO; [3]) was 125 nM and the IC50 (hA2a/CHO; [4]) was 102 nM. The IC50 [1, 5] was 488 nM.

`CNc1ccc(F)c(CNC(=O)c2nc(-c3ccc(=O)n(C)c3)c(-c3ncco3)nc2N)n1` [Example 50, 3-amino-N-[[3-fluoro-6-(methylamino)pyridin-2-yl]methyl]-6-(1-methyl-6-oxo-1,6-dihydropyridin-3-yl)-5-(1,3-oxazol-2-yl)pyrazine-2-carboxamide] showed an IC50 (hA2b/CHO; [2]) of 249 nM, an IC50 (mA2a/CHO; [3]) of 85 nM and an IC50 (hA2a/CHO; [4]) of 33 nM. For the same molecule, the IC50 [1, 5] was 90 nM.

`COc1cc(F)ccc1CNC(=O)c1nc(-c2cc(C)nc(C)c2)c(-c2ccc(F)cc2)nc1N` [Example 52, 3-amino-6-(2,6-dimethylpyridin-4-yl)-N-(4-fluoro-2-methoxybenzyl)-5-(4-fluorophenyl)pyrazine-2-carboxamide] was tested, and the IC50 (hA2b/CHO; [2]) was at least 10000 nM, the IC50 (mA2a/CHO; [3]) was 5960 nM and the IC50 (hA2a/CHO; [4]) was 89 nM. It also gave an IC50 [1, 5] of 2630 nM.

`COc1c(F)cccc1CNC(=O)c1nc(-c2cc(C)nc(C)c2)c(-c2ccc(F)cc2)nc1N` [Example 54, 3-amino-6-(2,6-dimethylpyridin-4-yl)-N-(3-fluoro-2-methoxybenzyl)-5-(4-fluorophenyl)pyrazine-2-carboxamide] was tested, and the IC50 (hA2b/CHO; [2]) was at least 10000 nM, the IC50 (mA2a/CHO; [3]) was 2080 nM and the IC50 (hA2a/CHO; [4]) was 117 nM. It also gave an IC50 [1, 5] of 1590 nM.

In the case of `Cc1cc(-c2nc(C(=O)NCc3ccccc3C(F)F)c(N)nc2-c2ccc(F)cc2)cc(C)n1` [Example 55, 3-amino-N-(2-(difluoromethyl)benzyl)-6-(2,6-dimethylpyridin-4-yl)-5-(4-fluorophenyl)pyrazine-2-carboxamide], the IC50 (hA2b/CHO; [2]) is reported as 4440 nM, the IC50 (mA2a/CHO; [3]) is reported as 1590 nM and the IC50 (hA2a/CHO; [4]) is reported as 133 nM. For the same molecule, the IC50 [1, 5] was 413 nM.

Work on `COc1ccccc1CNC(=O)c1nc(-c2cc(C)nc(C)c2)c(-n2cccn2)nc1N` [Example 56, 3-amino-6-(2,6-dimethylpyridin-4-yl)-N-(2-methoxybenzyl)-5-(1H-pyrazol-1-yl)pyrazine-2-carboxamide] yielded an IC50 (hA2b/CHO; [2]) of at least 10000 nM, an IC50 (mA2a/CHO; [3]) of 623 nM and an IC50 (hA2a/CHO; [4]) of 28 nM. For the same molecule, the IC50 [1, 5] was 940 nM.

In the case of `Cc1cc(-c2nc(C(=O)NCc3ncccc3OC(F)F)c(N)nc2-c2ccc(F)cc2)cc(C)n1` [Example 57, 3-amino-N-((3-(difluoromethoxy)pyridin-2-yl)methyl)-6-(2,6-dimethylpyridin-4-yl)-5-(4-fluorophenyl)pyrazine-2-carboxamide], the IC50 (hA2b/CHO; cAMP & FLIPR IC50 (nM) hA2b) is reported as 1680 nM, the IC50 (mA2a/CHO; cAMP & FLIPR IC50 (nM) mA2a) is reported as 278 nM and the IC50 (hA2a/CHO; cAMP & FLIPR IC50 (nM) hA2a) is reported as 41 nM. It also gave an IC50 ([1]; cAMP & FLIPR IC50 (nM) hA1, FLIPR inhibition) of 142 nM.

`Cn1cc(-c2nc(C(=O)NCc3ncccc3OC(F)F)c(N)nc2-c2ccc(F)cc2)ccc1=O` [Example 58, 3-amino-N-((3-(difluoromethoxy)pyridin-2-yl)methyl)-5-(4-fluorophenyl)-6-(1-methyl-6-oxo-1,6-dihydropyridin-3-yl)pyrazine-2-carboxamide] gave an IC50 (hA2b/CHO; [2]) of 62 nM, an IC50 (mA2a/CHO; [3]) of 81 nM and an IC50 (hA2a/CHO; [4]) of 19 nM. For the same molecule, the IC50 [1, 5] was 18 nM.

`COc1cccnc1CNC(=O)c1nc(-c2cc(C)nc(C)c2)c(-c2ccc(F)cc2)nc1N` [Example 71, 3-amino-6-(2,6-dimethylpyridin-4-yl)-5-(4-fluorophenyl)-N-((3-methoxypyridin-2-yl)methyl)pyrazine-2-carboxamide] gave an IC50 (hA2b/CHO; [2]) of 1940 nM, an IC50 (mA2a/CHO; [3]) of 1250 nM and an IC50 (hA2a/CHO; [4]) of 64 nM. It also gave an IC50 [1, 5] of 388 nM.

With `Cn1cc(-c2nc(C(=O)NCc3ccccc3OC(F)F)c(N)nc2-c2ccc(F)cc2)ccc1=O` [Example 72, 3-amino-N-(2-(difluoromethoxy)benzyl)-5-(4-fluorophenyl)-6-(1-methyl-6-oxo-1,6-dihydropyridin-3-yl)pyrazine-2-carboxamide] the IC50 (hA2b/CHO; [2]) was 23 nM, the IC50 (mA2a/CHO; [3]) was 8.1 nM and the IC50 (hA2a/CHO; [4]) was 1.3 nM. It also gave an IC50 [1, 5] of 14 nM.

With `Cn1cc(-c2nc(C(=O)NCc3c(F)cccc3OC(F)F)c(N)nc2-c2ccc(F)cc2)ccc1=O` [Example 73, 3-amino-N-(2-(difluoromethoxy)-6-fluorobenzyl)-5-(4-fluorophenyl)-6-(1-methyl-6-oxo-1,6-dihydropyridin-3-yl) pyrazine-2-carboxamide] the IC50 (hA2b/CHO; [2]) was 8.1 nM, the IC50 (mA2a/CHO; [3]) was 4.2 nM and the IC50 (hA2a/CHO; [4]) was 0.4 nM. For the same molecule, the IC50 [1, 5] was 20 nM.

Molecule `COc1ccccc1CNC(=O)c1nc(-c2cc(C)nc(C)c2)c(-n2nccc2C)nc1N` [Example 74, 3-amino-6-(2,6-dimethylpyridin-4-yl)-N-(2-methoxybenzyl)-5-(5-methyl-1H-pyrazol-1-yl)pyrazine-2-carboxamide] has an IC50 (hA2b/CHO; [2]) of at least 10000 nM, an IC50 (mA2a/CHO; [3]) of 1950 nM and an IC50 (hA2a/CHO; [4]) of 44 nM. The IC50 [1, 5] was 216 nM.

Molecule `COc1ccccc1CNC(=O)c1nc(-c2cc(C)nc(C)c2)c(-n2ccc(C)n2)nc1N` [Example 75, 3-amino-6-(2,6-dimethylpyridin-4-yl)-N-(2-methoxybenzyl)-5-(3-methyl-1H-pyrazol-1-yl)pyrazine-2-carboxamide] has an IC50 (hA2b/CHO; [2]) of at least 10000 nM, an IC50 (mA2a/CHO; [3]) of 157 nM and an IC50 (hA2a/CHO; [4]) of 6.1 nM. It also gave an IC50 [1, 5] of 44 nM.

Molecule `COc1ccccc1CNC(=O)c1nc(-c2ccc(=O)n(C(F)F)c2)c(-c2ccc(F)cc2)nc1N` [Example 76, 3-amino-6-(1-(difluoromethyl)-6-oxo-1,6-dihydropyridin-3-yl)-5-(4-fluorophenyl)-N-(2-methoxybenzyl) pyrazine-2-carboxamide] has an IC50 (hA2b/CHO; [2]) of 76 nM, an IC50 (mA2a/CHO; [3]) of 22 nM and an IC50 (hA2a/CHO; [4]) of 4.2 nM. For the same molecule, the IC50 [1, 5] was 68 nM.

For `Cc1cc(-c2nc(C(=O)NCc3ccccc3F)c(N)nc2-c2ccc(F)cc2)cc(C)n1` [Example 78, 3-amino-6-(2,6-dimethylpyridin-4-yl)-N-(2-fluorobenzyl)-5-(4-fluorophenyl)pyrazine-2-carboxamide], the IC50 (hA2b/CHO; [2]) was at least 10000 nM, the IC50 (mA2a/CHO; [3]) was 934 nM and the IC50 (hA2a/CHO; [4]) was 44 nM. The IC50 [1, 5] was 2730 nM.

With `Cc1cc(-c2nc(C(=O)NCc3ccccc3Cl)c(N)nc2-c2ccc(F)cc2)cc(C)n1` [Example 79, 3-amino-N-(2-chlorobenzyl)-6-(2,6-dimethylpyridin-4-yl)-5-(4-fluorophenyl) pyrazine-2-carboxamide] the IC50 (hA2b/CHO; [2]) was at least 10000 nM, the IC50 (mA2a/CHO; [3]) was 540 nM and the IC50 (hA2a/CHO; [4]) was 33 nM. For the same molecule, the IC50 [1, 5] was 597 nM.

`Cc1cc(-c2nc(C(=O)NCc3ccccc3Br)c(N)nc2-c2ccc(F)cc2)cc(C)n1` [Example 80, 3-amino-N-(2-bromobenzyl)-6-(2,6-dimethylpyridin-4-yl)-5-(4-fluorophenyl) pyrazine-2-carboxamide] showed an IC50 (hA2b/CHO; [2]) of 4170 nM, an IC50 (mA2a/CHO; [3]) of 158 nM and an IC50 (hA2a/CHO; [4]) of 44 nM. It also gave an IC50 [1, 5] of 1400 nM.

With `Cc1cc(-c2nc(C(=O)NCc3ccccc3C)c(N)nc2-c2ccc(F)cc2)cc(C)n1` [Example 81, 3-amino-6-(2,6-dimethylpyridin-4-yl)-5-(4-fIuorophenyl)-N-(2-methylbenzyl) pyrazine-2-carboxamide] the IC50 (hA2b/CHO; [2]) was at least 10000 nM, the IC50 (mA2a/CHO; [3]) was 301 nM and the IC50 (hA2a/CHO; [4]) was 98 nM. For the same molecule, the IC50 [1, 5] was 4750 nM.

`COc1ccccc1CNC(=O)c1nc(-c2cc(C)nc(N)c2)c(-c2ccc(F)cc2)nc1N` [Example 83, 3-amino-6-(2-amino-6-methylpyridin-4-yl)-5-(4-fluorophenyl)-N-(2-methoxybenzyl)pyrazine-2-carboxamide] showed an IC50 (hA2b/CHO; [2]) of 547 nM, an IC50 (mA2a/CHO; [3]) of 116 nM and an IC50 (hA2a/CHO; [4]) of 2 nM. For the same molecule, the IC50 [1, 5] was 132 nM.
